In EP3046573B1, “AMYLIN ANALOGUES” (Zealand Pharma A/S, priority 2013, dated 2015):
Numbered stars: 1 amine (or outer) side, 2 acyl side, 3 side chain; on linkers, the order of the positions; unused ones are H or OH. Bridge positions count the residues as written; N and C are the ends. Square brackets hold non-standard residues; d marks the D form. Peptide text beside a SMILES is read from it. * marks the point of attachment. C20 diacid = O=C(O)CCCCCCCCCCCCCCCCCCC(=O)*; γGlu = O=C(O)[C@H](CCC(=O)[*:2])N[*:1]; NMeY = CN[C@@H](Cc1ccc(O)cc1)C(=O)O; NMeI = CC[C@H](C)[C@H](NC)C(=O)O; Sar = CNCC(=O)O

Columns and labels:
[1] = target: T1, human calcitonin receptor (hCTR2) (Homo sapiens, UniProt P30988); assay: hCTR2 assay: induction of cAMP (AlphaScreen cAMP Assay kit) in COS7 cells expressing hCTR2; assay type: cell-based
T1 construct: expressed in transfected cells
T1 sequence (P30988 25-474): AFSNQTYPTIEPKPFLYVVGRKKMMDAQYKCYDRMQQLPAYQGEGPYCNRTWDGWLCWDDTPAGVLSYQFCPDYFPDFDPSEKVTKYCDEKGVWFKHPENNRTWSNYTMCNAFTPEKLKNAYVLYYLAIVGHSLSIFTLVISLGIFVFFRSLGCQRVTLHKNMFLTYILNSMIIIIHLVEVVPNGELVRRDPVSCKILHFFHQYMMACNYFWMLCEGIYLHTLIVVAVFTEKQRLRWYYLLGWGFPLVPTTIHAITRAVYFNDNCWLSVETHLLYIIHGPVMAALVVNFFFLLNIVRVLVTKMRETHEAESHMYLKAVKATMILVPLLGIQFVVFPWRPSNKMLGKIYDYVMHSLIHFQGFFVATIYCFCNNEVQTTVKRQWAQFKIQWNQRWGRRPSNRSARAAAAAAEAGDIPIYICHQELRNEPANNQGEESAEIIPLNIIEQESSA
Summary of the method: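 Cells were seeded one day ahead, washed, then exposed to rising peptide concentrations for 15 min at 37° C in the presence of 100 µM IBMX. After lysis for 10 min at room temperature, cAMP was quantified by AlphaScreen and EC50 values derived by 4PL fitting.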

[2] = Solubility assessment (turbidity absorbance at 325 nm); assay type: physicochemical; details: stock 2 mg/ml diluted 1:1, ambient temperature (typically 25°C), n=1; for Solubility, Acetate buffer pH 4: 100 mM acetate buffer pH 4.0; for Solubility, Acetate buffer pH 5: 100 mM acetate buffer pH 5.0; for Solubility, Histidine buffer pH 6: 100 mM histidine buffer pH 6.0; for Solubility, Histidine buffer pH 7: 100 mM histidine buffer pH 7.0; for Solubility, Phosphate buffer pH 6: 100 mM phosphate buffer pH 6.0; for Solubility, Phosphate buffer pH 7: 100 mM phosphate buffer pH 7.0; for Solubility, Phosphate buffer pH 7.5: 100 mM phosphate buffer pH7.5
Summary of the method: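 Turbidity read as absorbance at 325 nm (also 280 nm), single samples at ambient temperature (typically 25°C); ≤ 0.02 units counts as ≥ 1 mg/ml soluble. Samples made by 1:1 dilution of a 2 mg/ml acidic stock into 100 mM acetate, histidine or phosphate buffers, pH 4.0–7.5.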

[3] = Assessment of physical stability: fibril formation detected with Thioflavin T (ThT), lag-time; assay type: physicochemical; details: 1 mg/ml peptide, 40 µM ThT, FND = Fibrillation not detected; for Fibrillation lag time (hours) pH 4.0 (Ac): 50 mM acetate buffer pH 4.0, 96 hours at 40°C; for Fibrillation lag time (hours) pH 7.0 (Ph): 50 mM phosphate buffer pH 7.0, 96 hours at 40°C
Experimental: Solutions containing (i) 1 mg/ml of test peptide, 40 µM ThT and 50 mM phosphate (Ph) buffer (pH 7.0), (ii) 1 mg/ml of test peptide, 40 µM ThT and 50 mM histidine (His) buffer (pH 7.0), and (iii) 1 mg/ml of test peptide, 40 µM ThT and 50 mM acetate (Ac) buffer (pH 4.0), were loaded in a 96-well black fluorescence plate (clear bottom) in triplicate. Data were collected at fixed intervals of 10 min, each preceded by 300 s of automixing (agitation), over a period of 96 hours at 40° C. Physical stability, expressed as lag-time of fibril formation (in hours), was defined as the intersection between two linear regressions representing the initial stable phase and the growth phase.

[4] = test system: Sprague Dawley (SD) rats; assay: Acute food intake and body weight in normal Sprague Dawley rats; assay type: in vivo; details: vehicle-corrected, dose 30 nmol/kg sc, once
Experimental: Sprague Dawley (SD) rats were obtained from Taconic A/S, Denmark. The animals arrived at least 7 days before the study start to allow acclimatization to experimental conditions. From arrival and throughout the study, the rats were housed in groups of 2 (n = 2) in a light-, temperature- and humidity-controlled room (reversed 12/12 h light/dark cycle: lights turned off during day-time and on during night-time; temperature 20-22°C; relative humidity 50-80%). Animals had access ad libitum to food (Altromin™ 1324, Brogaarden A/S, Gentofte, Denmark) and water (domestic quality tap water with citric acid added to pH ∼ 3.6) during the entire study. Stratification of rats was based on body weight (BW) on a cage-by-cage basis; mean BWs per cage were used as the basis for pairing four cages together in a group (n = 8 per group). A vehicle group and positive control group were included in each set of tests. Rats were dosed subcutaneously (sc) once in the morning immediately before turning off the lights, using a body weight-corrected dose of peptide (30 nmol/kg). Dosing volume was 5 ml/kg. Food intake was recorded manually at t = 0 (pre-dose) and at t = 4, 7, 10, 24, 48, 72 and 96 hours after dosing. Body weight was measured daily.
Statistical analyses on body weight were performed using GraphPad™ Prism version 5. The measured parameters were compared using unpaired t tests. Differences were considered statistically significant at p < 0.05. Data are means ± SEM; n =8.

[5] = target: T2, human amylin receptor 3 (hAMYR3) consisting of hCTR2 co-expressed with human Receptor Activity Modifying Protein 3 (hRAMP3) (Homo sapiens, UniProt O60896+P30988); assay: hAMYR3 assay: induction of cAMP (AlphaScreen cAMP Assay kit) in COS7 cells expressing hAMYR3; assay type: cell-based; details: cAMP induction in COS7 cells expressing hAMYR3; average of a minimum of 3 determinations; read-out: hAMY R3 EC50
T2 construct: expressed in transfected cells
T2 sequence (P30988 25-474): T1 sequence (P30988 25-474)
T2 sequence (O60896 24-148 partner): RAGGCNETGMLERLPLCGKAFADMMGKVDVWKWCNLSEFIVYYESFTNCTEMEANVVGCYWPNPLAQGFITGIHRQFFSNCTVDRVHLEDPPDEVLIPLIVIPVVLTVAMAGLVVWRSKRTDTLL
Summary of the method: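 cAMP accumulation read by AlphaScreen in lysates of RAMP-naive COS7 cells stably transfected with hCTR2 plus hRAMP3. Cells exposed to peptide dilutions for 15 min, 37° C, with 100 µM IBMX; 4PL fitting gave EC50 and efficacy relative to pramlintide.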

| Structure (SMILES) | EC50 [1] | Solubility, Acetate buffer pH 4 [2] | Solubility, Acetate buffer pH 5 [2] | Solubility, Histidine buffer pH 6 [2] | Solubility, Histidine buffer pH 7 [2] | Solubility, Phosphate buffer pH 6 [2] | Solubility, Phosphate buffer pH 7 [2] | Solubility, Phosphate buffer pH 7.5 [2] | Fibrillation lag time (hours) pH 4.0 (Ac) [3] | Fibrillation lag time (hours) pH 7.0 (His) ([3]; 50 mM histidine buffer pH 7.0, 96 hours at 40°C) | Fibrillation lag time (hours) pH 7.0 (Ph) [3] | Food intake inhibition (%) after 48 hours ([4]; 48 hours) | Body weight loss (%) after 96 hours ([4]; mean ± SEM, 96 hours, n = 8) | EC50 [5] |
| --- | --- | --- | --- | --- | --- | --- | --- | --- | --- | --- | --- | --- | --- | --- |
| CC[C@H](C)[C@@H](C(=O)N[C@@H](CC(C)C)C(=O)N[C@@H](CO)C(=O)N[C@@H](CO)C(=O)N[C@H](C(=O)N[C@@H](CC(N)=O)C(=O)N[C@H](C(=O)NCC(=O)N[C@@H](CO)C(=O)N[C@@H](CC(N)=O)C(=O)N[C@H](C(=O)N(C)[C@@H](Cc1ccc(O)cc1)C(N)=O)[C@@H](C)O)C(C)C)[C@@H](C)O)N(C)C(=O)[C@H](C)NC(=O)CN(C)C(=O)[C@H](Cc1ccccc1)NC(=O)[C@H](CC(N)=O)NC(=O)[C@H](CC(N)=O)NC(=O)[C@H](CO)NC(=O)[C@H](CO)NC(=O)[C@H](Cc1c[nH]cn1)NC(=O)[C@H](Cc1c[nH]cn1)NC(=O)[C@H](CC(C)C)NC(=O)[C@H](Cc1ccccc1)NC(=O)[C@H](CCC(=O)O)NC(=O)[C@H](C)NC(=O)[C@H](CC(C)C)NC(=O)[C@H](CCCNC(=N)N)NC(=O)[C@H](CCC(N)=O)NC(=O)[C@@H](NC(=O)[C@H](C)NC(=O)[C@@H]1CSSC[C@H](NC(=O)[C@H](CCCNC(=N)N)NC(=O)CC[C@H](NC(=O)CCCCCCCCCCCCCCCCCCC(=O)O)C(=O)O)C(=O)N[C@@H](CC(N)=O)C(=O)N[C@@H]([C@@H](C)O)C(=O)N[C@@H](C)C(=O)N[C@@H]([C@@H](C)O)C(=O)N1)[C@@H](C)O [Compound 61, [19CD]-isoGlu-RC()NTATC()ATQRLAEFLHHSSNNF-Gly(Me)-A-Ile(Me)-LSSTNVGSNT-Tyr(Me)-NH2] ({C20 diacid-γGlu}-RCNTATCATQRLAEFLHHSSNNF[Sar]A[NMeI]LSSTNVGSNT[NMeY]-NH2; disulfide 2-7) | 0.3 nM | SS (SS indicates solubility ≥ 1mg/ml) | SS (SS indicates solubility ≥ 1mg/ml) | II (II indicates solubility ≤ 1 mg/ml) | II (II indicates solubility ≤ 1 mg/ml) | II (II indicates solubility ≤ 1 mg/ml) | II (II indicates solubility ≤ 1 mg/ml) | II (II indicates solubility ≤ 1 mg/ml) | FND | 3 hours | 3 hours | 24% | 1 ± 1.6 % |  |
| CC[C@H](C)[C@@H](C(=O)N[C@@H](CC(C)C)C(=O)N1CCC[C@H]1C(=O)N1CCC[C@H]1C(=O)N[C@H](C(=O)N[C@@H](CC(N)=O)C(=O)N[C@H](C(=O)NCC(=O)N[C@@H](CO)C(=O)N[C@@H](CC(N)=O)C(=O)N[C@H](C(=O)N1CCC[C@H]1C(N)=O)[C@@H](C)O)C(C)C)[C@@H](C)O)N(C)C(=O)[C@@H]1CCCN1C(=O)CN(C)C(=O)[C@H](Cc1ccccc1)NC(=O)[C@H](CC(N)=O)NC(=O)[C@H](CC(N)=O)NC(=O)[C@H](CO)NC(=O)[C@H](CO)NC(=O)[C@H](Cc1c[nH]cn1)NC(=O)[C@H](Cc1c[nH]cn1)NC(=O)[C@H](CC(C)C)NC(=O)[C@H](Cc1ccccc1)NC(=O)[C@H](CCC(=O)O)NC(=O)[C@H](C)NC(=O)[C@H](CC(C)C)NC(=O)[C@H](CCCNC(=N)N)NC(=O)[C@H](CCC(N)=O)NC(=O)[C@@H](NC(=O)[C@H](C)NC(=O)[C@@H]1CSSC[C@H](NC(=O)[C@H](CCCNC(=N)N)NC(=O)CC[C@H](NC(=O)CCCCCCCCCCCCCCCCCCC(=O)O)C(=O)O)C(=O)N[C@@H](CC(N)=O)C(=O)N[C@@H]([C@@H](C)O)C(=O)N[C@@H](C)C(=O)N[C@@H]([C@@H](C)O)C(=O)N1)[C@@H](C)O [Compound 175, [19CD]-isoGlu-RC()NTATC()ATQRLAEFLHHSSNNF-Gly(Me)-P-Ile(Me)-LPPTNVGSNTP-NH2] ({C20 diacid-γGlu}-RCNTATCATQRLAEFLHHSSNNF[Sar]P[NMeI]LPPTNVGSNTP-NH2; disulfide 2-7) | 0.2 nM | SS (SS indicates solubility ≥ 1mg/ml) | SS (SS indicates solubility ≥ 1mg/ml) | SS (SS indicates solubility ≥ 1mg/ml) | SS (SS indicates solubility ≥ 1mg/ml) | SS (SS indicates solubility ≥ 1mg/ml) | SS (SS indicates solubility ≥ 1mg/ml) | II (II indicates solubility ≤ 1 mg/ml) | FND |  | FND |  |  | 0.2 nM |
